# Reference: patent US11389456B2, “Compounds and methods for treating oxalate-related diseases” (OxaluRx, Inc., priority 2018, dated 2022)
# Target: recombinant full-length human hydroxyacid oxidase 1 (HAO1), the equivalent of hGOX (Homo sapiens (Human), UniProt Q9UJM8)
# Assay: In-vitro human glycolate oxidase (hGOX) assay (Amplex red/HRP fluorescence)
# Type: biochemical
# Conditions: 12.5 nM HAO1, 85 μM glycolate, 2.5% DMSO; read-out: IC50
# Experimental: Biological Activity Assay: In-Vitro Human Glycolate Oxidase (hGOX) Assay
# The in-vitro glycolate oxidase assay was performed using recombinant full-length human hydroxyacid oxidase 1 (HAO1), the equivalent of hGOX. […] Purified HAO1 was dissolved in assay buffer consisting of 10 mM NaCl, 110 mM KCl, 2 mM MgCl2, 50 mM HEPES (pH 7.4) and 0.01% Triton™ X-100.
# Chain of recombinant full-length human hydroxyacid oxidase 1 (HAO1), the equivalent of hGOX (Q9UJM8 whole entry): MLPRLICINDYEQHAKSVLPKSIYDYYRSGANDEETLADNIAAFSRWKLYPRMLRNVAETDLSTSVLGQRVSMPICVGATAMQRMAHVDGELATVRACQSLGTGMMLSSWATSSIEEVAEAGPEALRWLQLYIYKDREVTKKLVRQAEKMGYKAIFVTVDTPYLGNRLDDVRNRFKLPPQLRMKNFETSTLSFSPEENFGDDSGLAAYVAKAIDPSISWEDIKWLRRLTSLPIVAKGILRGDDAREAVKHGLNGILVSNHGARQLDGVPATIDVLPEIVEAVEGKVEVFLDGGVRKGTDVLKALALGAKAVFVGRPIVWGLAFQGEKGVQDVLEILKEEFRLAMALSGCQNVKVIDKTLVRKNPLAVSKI
row,SMILES,IC50 [nM]
1,"O=C(O)c1nn[nH]c1Oc1ccc(-c2ccc(OC(F)(F)F)c(F)c2)cc1 [Example I-310, 5-((3′-Fluoro-4′-(trifluoromethoxy)-[1,1′-biphenyl]-4-yl)oxy)-1H-1,2,3-triazole-4-carboxylic acid]",5
2,"CCOC(=O)c1nn[nH]c1Nc1ccc(OC)cc1 [Example I-289, Ethyl 5-((4-methoxyphenyl)amino)-1H-1,2,3-triazole-4-carboxylate]",> 500000
3,"O=C(O)c1nn[nH]c1Oc1cccc(N2CCCCCC2)c1 [Example I-280, 5-(3-(Azepan-1-yl)phenoxy)-1H-1,2,3-triazole-4-carboxylic acid]",222
4,"O=C(O)c1nn[nH]c1Oc1cccc(-c2ccc3c(c2)OCO3)c1 [Example I-305, 5-(3-(Benzo[d][1,3]dioxol-5-yl)phenoxy)-1H-1,2,3-triazole-4-carboxylic acid]",2
5,"O=C(O)c1[nH]nnc1Oc1ccc(F)c(F)c1 [Example I-307, 5-(3,4-Difluorophenoxy)-1H-1,2,3-triazole-4-carboxylic acid]",88
6,"C=Cc1cccc(Oc2[nH]nnc2C(=O)O)c1 [Example I-284, 5-(3-Vinylphenoxy)-1H-1,2,3-triazole-4-carboxylic acid]",89
7,"CCOC(=O)c1nn[nH]c1Sc1ccc(Br)cc1 [Example I-008, Ethyl 5-((4-bromophenyl)thio)-1H-1,2,3-triazole-4-carboxylate]",> 500000
8,"O=C(O)c1nn[nH]c1Sc1ccccc1F [Example I-013, 5-((2-Fluorophenyl)thio)-1H-1,2,3-triazole-4-carboxylic acid]",200
9,"O=C(O)c1nn[nH]c1Sc1nc2ccccc2s1 [Example I-032, 5-(Benzo[d]thiazol-2-ylthio)-1H-1,2,3-triazole-4-carboxylic acid]",4860
10,"COc1cc(OC)cc(-c2cccc(Oc3[nH]nnc3C(=O)O)c2)c1 [Example I-303, 5-((3′,5′-Dimethoxy-[1,1′-biphenyl]-3-yl)oxy)-1H-1,2,3-triazole-4-carboxylic acid]",169
11,"CCOC(=O)c1nn[nH]c1Sc1ccc(OC)cc1 [Example I-005, Ethyl 5-((4-Methoxyphenyl)thio)-1H-1,2,3-triazole-4-carboxylate]",> 500000
12,"O=C(O)c1nn[nH]c1Oc1ccccc1 [Example I-057, 5-Phenoxy-1H-1,2,3-triazole-4-carboxylic acid]",360
13,"COc1ccc(Oc2[nH]nnc2C(=O)O)cc1 [Example I-035, 5-(4-Methoxyphenoxy)-1H-1,2,3-triazole-4-carboxylic acid]",260
14,"CCc1cccc(Oc2[nH]nnc2C(=O)O)c1 [Example I-295, 5-(3-Ethylphenoxy)-1H-1,2,3-triazole-4-carboxylic acid]",79
15,"O=C(O)c1nn[nH]c1Oc1cccc(N2CCCC2)c1 [Example I-283, 5-(3-(Pyrrolidin-1-yl)phenoxy)-1H-1,2,3-triazole-4-carboxylic acid]",172
16,"O=C(O)c1nn[nH]c1Oc1cccc(C2CC2)c1 [Example I-293, 5-(3-Cyclopropylphenoxy)-1H-1,2,3-triazole-4-carboxylic acid]",74
17,"CCc1ccc(Oc2[nH]nnc2C(=O)O)cc1 [Example I-298, 5-(4-Ethylphenoxy)-1H-1,2,3-triazole-4-carboxylic acid]",34
18,"CCOC(=O)c1nn[nH]c1Sc1ccccc1F [Example I-014, Ethyl 5-((2-fluorophenyl)thio)-1H-1,2,3-triazole-4-carboxylate]",430000
19,"O=C(O)c1nn[nH]c1Oc1cccc(N2CCOCC2)c1 [Example I-282, 5-(3-Morpholinophenoxy)-1H-1,2,3-triazole-4-carboxylic acid]",539
20,"CC(C)c1cccc(Oc2[nH]nnc2C(=O)O)c1 [Example I-278, 5-(3-Isopropylphenoxy)-1H-1,2,3-triazole-4-carboxylic acid]",230
21,"Cc1cc(Oc2[nH]nnc2C(=O)O)ccc1F [Example I-306, 5-(4-Fluoro-3-methylphenoxy)-1H-1,2,3-triazole-4-carboxylic acid]",61
22,"O=C(O)c1nn[nH]c1Sc1ccc(C(F)(F)F)cc1 [Example I-016, 5-((4-(Trifluoromethyl)phenyl)thio)-1H-1,2,3-triazole-4-carboxylic acid]",820
23,"O=C(O)c1nn[nH]c1Sc1ccccc1Cl [Example I-011, 5-((2-Chlorophenyl)thio)-1H-1,2,3-triazole-4-carboxylic acid]",270

row,SMILES,IC50 [nM]
1,"COc1ccc(Sc2[nH]nnc2C(=O)O)cc1 [Example I-004, 5-((4-Methoxyphenyl)thio)-1H-1,2,3-triazole-4-carboxylic acid]",140
2,"CCOC(=O)c1nn[nH]c1Nc1ccc(C)cc1 [Example I-291, ethyl 5-(p-tolylamino)-1H-1,2,3-triazole-4-carboxylate]",> 500000
3,"O=C(O)c1[nH]nnc1Sc1ccc(Cl)c(Cl)c1 [Example I-025, 5-((3,4-Dichlorophenyl)thio)-1H-1,2,3-triazole-4-carboxylic acid]",43
4,"O=C(O)c1nn[nH]c1Sc1cccc(F)c1 [Example I-015, 5-((3-Fluorophenyl)thio)-1H-1,2,3-triazole-4-carboxylic acid]",130
5,"O=C(O)c1nn[nH]c1Oc1ccc(Cl)c(F)c1 [Example I-308, 5-(4-Chloro-3-fluorophenoxy)-1H-1,2,3-triazole-4-carboxylic acid]",34
6,"Cc1ccc(Nc2[nH]nnc2C(=O)O)cc1 [Example I-292, 5-(p-Tolylamino)-1H-1,2,3-triazole-4-carboxylic acid]",3760
7,"O=C(O)c1nn[nH]c1Oc1cccc(N2CCCCC2)c1 [Example I-281, 5-(3-(Piperidin-1-yl)phenoxy)-1H-1,2,3-triazole-4-carboxylic acid]",370
8,"O=C(O)c1nn[nH]c1Sc1ccc(Br)cc1 [Example I-007, 5-((4-Bromophenyl)thio)-1H-1,2,3-triazole-4-carboxylic acid]",70
9,"C#Cc1ccc(Oc2[nH]nnc2C(=O)O)cc1 [Example I-297, 5-(4-Ethynylphenoxy)-1H-1,2,3-triazole-4-carboxylic acid]",4
10,"Cc1ccc(Sc2[nH]nnc2C(=O)O)c(C)c1 [Example I-009, 5-((2,4-Dimethylphenyl)thio)-1H-1,2,3-triazole-4-carboxylic acid]",230
11,"O=C(O)c1nn[nH]c1Oc1ccc(-c2cc(Cl)cc(Cl)c2)cc1 [Example I-300, 5-((3′,5′-Dichloro-[1,1′-biphenyl]-4-yl)oxy)-1H-1,2,3-triazole-4-carboxylic acid]",33
12,"O=C(O)c1nn[nH]c1Oc1ccc(F)c(Cl)c1 [Example I-309, 5-(3-Chloro-4-fluorophenoxy)-1H-1,2,3-triazole-4-carboxylic acid]",27
13,"Cc1ccc(Oc2[nH]nnc2C(=O)O)cc1C [Example I-039, 5-(3,4-Dimethylphenoxy)-1H-1,2,3-triazole-4-carboxylic acid]",56
14,"Cc1ccc(Sc2[nH]nnc2C(=O)O)cc1 [Example I-003, 5-(p-Tolylthio)-1H-1,2,3-triazole-4-carboxylic acid]",160
15,"CC(C)c1ccc(Oc2[nH]nnc2C(=O)O)cc1 [Example I-274, 5-(4-Isopropylphenoxy)-1H-1,2,3-triazole-4-carboxylic acid]",112
16,"COc1ccc(Nc2[nH]nnc2C(=O)O)cc1 [Example I-290, 5-((4-Methoxyphenyl)amino)-1H-1,2,3-triazole-4-carboxylic acid]",6530
17,"Cc1ccccc1Sc1[nH]nnc1C(=O)O [Example I-010, 5-(o-Tolylthio)-1H-1,2,3-triazole-4-carboxylic acid]",360
18,"CC(C)Cc1cccc(Oc2[nH]nnc2C(=O)O)c1 [Example I-296, 5-(3-Isobutylphenoxy)-1H-1,2,3-triazole-4-carboxylic acid]",76
19,"CCOC(=O)c1nn[nH]c1Sc1ccccc1Cl [Example I-012, Ethyl 5-((2-chlorophenyl)thio)-1H-1,2,3-triazole-4-carboxylate]",251000
20,"COc1cc(OC)cc(-c2ccc(Oc3[nH]nnc3C(=O)O)cc2)c1 [Example I-301, 5-((3′,5′-Dimethoxy-[1,1′-biphenyl]-4-yl)oxy)-1H-1,2,3-triazole-4-carboxylic acid]",1080
21,"O=C(O)c1nn[nH]c1Oc1cccc(-c2ccc(OC(F)(F)F)c(F)c2)c1 [Example I-311, 5-((3′-Fluoro-4′-(trifluoromethoxy)-[1,1′-biphenyl]-3-yl)oxy)-1H-1,2,3-triazole-4-carboxylic acid]",27
22,"COc1ccccc1Sc1[nH]nnc1C(=O)O [Example I-006, 5-((2-Methoxyphenyl)thio)-1H-1,2,3-triazole-4-carboxylic acid]",2310
23,"O=C(O)c1nn[nH]c1OCc1ccc(Br)cc1 [Example I-085, 5-((4-Bromobenzyl)oxy)-1H-1,2,3-triazole-4-carboxylic acid]",> 10000
